Like-named read-outs stand apart in the source and are kept apart here. Values belong to the compound of their own block, whether it stands above or below them.
How the values were obtained:
[1] = target: T1, α-chymotrypsin (Bos taurus, UniProt P00766); settings: competitive inhibitor; Lindquist et al.; cited from earlier work
T1 construct: purchased

[2] = target: Porcine pancreatic elastase (Sus scrofa, UniProt P00772); assay: Inhibition of pancreatic elastase; assay type: biochemical
Method: Porcine pancreatic elastase (9.8 U/mg.) was obtained from commercial sources. […] Reactions were initiated by addition of 0.5 μg of elastase in 0.020 mL of 0.020M sodium acetate buffer, pH 6.0, and hydrolysis of substrate was monitored spectrophotometrically at 405 nm at 25° C. Assay results are set forth in Table 4, below, expressed as percentages of activity of control mixtures to which no inhibitor was added: […]

[3] = target: chymotrypsin (Bos taurus, UniProt P00766); settings: Matteson et al.; cited from earlier work
[4] = target: T2, thermolysin (Bacillus thermoproteolyticus, UniProt P00800); assay: Inhibition of thermolysin; assay type: biochemical; settings: Conc. 5.0 × 10^-4 M
T2 construct: purchased
T2 sequence (P00800 233-548): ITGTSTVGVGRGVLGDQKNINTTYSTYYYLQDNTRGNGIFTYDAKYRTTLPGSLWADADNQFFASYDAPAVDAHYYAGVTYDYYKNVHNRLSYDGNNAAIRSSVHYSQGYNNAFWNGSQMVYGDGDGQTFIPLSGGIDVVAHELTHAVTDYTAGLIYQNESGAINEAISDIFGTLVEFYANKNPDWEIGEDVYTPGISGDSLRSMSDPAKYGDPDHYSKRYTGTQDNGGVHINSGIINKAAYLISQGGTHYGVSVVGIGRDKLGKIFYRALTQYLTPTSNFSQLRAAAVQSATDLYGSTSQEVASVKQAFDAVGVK
Method: The metalloenzyme thermolysin was assayed by a procedure substantially similar to that described by Feder et al., Biochemistry 9:2784 (1970). Substrate, furylacryloyl-glycyl-leucinamide, and thermolysin were obtained from commercial sources. Assay solutions consisted of furylacryloyl-glycyl-leucinamide (0.100 mL, 8.0×10^-3 M in N,N-dimethylformamide) and 1.90 mL of 0.50M Tris buffer, pH 7.5, containing 0.10M NaCl and 0.010M CaCl2. Either 0.100 mL of dimethylsulfoxide or 0.100 mL of dimethylsulfoxide containing inhibitor was added and the reaction was initiated by the addition of 0.020 mL of thermolysin (1.0 mg/mL). The rate of hydrolysis was monitored by measuring the decrease in absorbance at 345 nm.

[5] = target: porcine pepsin (Sus scrofa, UniProt P00791); assay: Inhibition of pepsin; assay type: biochemical; settings: Conc. 5.0 × 10^-4 M
porcine pepsin, sequence (P00791 60-385): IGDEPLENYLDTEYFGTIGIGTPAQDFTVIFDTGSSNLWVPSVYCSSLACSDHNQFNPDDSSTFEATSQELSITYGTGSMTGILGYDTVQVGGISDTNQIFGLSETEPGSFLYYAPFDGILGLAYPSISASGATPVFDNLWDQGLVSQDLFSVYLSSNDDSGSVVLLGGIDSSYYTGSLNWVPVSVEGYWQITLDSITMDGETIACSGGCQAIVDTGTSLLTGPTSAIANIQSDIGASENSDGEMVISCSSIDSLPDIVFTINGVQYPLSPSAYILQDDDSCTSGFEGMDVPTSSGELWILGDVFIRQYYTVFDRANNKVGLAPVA
Method: Pepsin activity was assayed by a procedure substantially similar to that described by Rich, et al., Biochem. Pharmac. 29:2205 (1980). Substrate, […].2 trifluoroacetate, and porcine pepsin were obtained from commercial sources. Assay solutions, in a volume of 2.00 mL, contained 2.0×10^-4 M substrate in 0.040M sodium formate buffer, pH 4.0, and 0.050 mL of inhibitor solutions in dimethylsulfoxide. Assays were initiated by addition of 0.020 mL of pepsin (0.10 mg/mL), and hydrolysis of substrate was monitored by measuring the increase in absorbance at 310 nm on a spectrophotometer.

[6] = hamster, in vivo
Method: Plasma, 5 μL, containing various concentrations of inhibitor, or a dilution thereof, was incubated with 10 μL of a stock solution of 1.15×10^-5 M pancreatic elastase, in a final volume of 0.40 mL 0.10M Hepes buffer, pH 7.5, containing 0.5M NaCl at 25°. After 5 minutes incubation, 1.60 mL additional buffer and 20 μL of a 0.20M MeOSuc-AlaAlaPro-Val-pNA solution in dimethylsulfoxide was added and the increase in absorbance at 405 nm monitored. Levels of inhibitor were determined from a standard curve of % activity vs. inhibitor concentration.
FIG. 1 illustrates results of experiments in which hamsters, 50 days old, weighing 80-90 g, were administered MeOSu-AlaAlaPro-Boroval-pinacol in 1.0 mL saline at intraperitoneal dosage levels of 400, 200 and 100 mg/kg. At the indicated time intervals, blood samples (50-100 μL) were withdrawn by cardiac puncture from animals lightly anesthetized with ether, and elastase inhibitor levels determined. Normal plasma EIC is 14 μM.

[7] = target: T1, α-chymotrypsin; assay: Titration of α-chymotrypsin; assay type: biochemical
Method: In these experiments, α-chymotrypsin, obtained from commercial sources, was standardized by titration with various concentrations of MeOSuc-AlaAlaPro-Borophe-diethanolamine. In each case, enzyme was incubated with inhibitor for 5 minutes at 23°, in 0.01M Hepes buffer, pH 7.5, containing 0.50M NaCl and 10% dimethylsulfoxide. Aliquots were then removed and assayed for enzyme activity.

[8] = target: T3, Bovine α-chymotrypsin (Bos taurus, UniProt P00766); assay: Inhibition of α-chymotrypsin; assay type: biochemical; settings: inhibitor 100 nM; N.T (no detectable time dependence)
T3 construct: purchased
Method: Bovine α-chymotrypsin, obtained from commercial sources, was used to prepare stock solutions. […] Reactions were initiated by the addition of 0.040 μg of enzyme and increases in absorbance were monitored spectrophotometrically at 405 nm at 25°.

[9] = target: T4, neutrophil elastase (Homo sapiens, UniProt P08246); assay: Inhibition of neutrophil elastase (Table 2); assay type: biochemical; set-up: Neutrophil elastase was prepared by the procedure described by Baugh. et al; from tissue; settings: inhibitor 5,000 nM
T4 sequence (P08246 30-267): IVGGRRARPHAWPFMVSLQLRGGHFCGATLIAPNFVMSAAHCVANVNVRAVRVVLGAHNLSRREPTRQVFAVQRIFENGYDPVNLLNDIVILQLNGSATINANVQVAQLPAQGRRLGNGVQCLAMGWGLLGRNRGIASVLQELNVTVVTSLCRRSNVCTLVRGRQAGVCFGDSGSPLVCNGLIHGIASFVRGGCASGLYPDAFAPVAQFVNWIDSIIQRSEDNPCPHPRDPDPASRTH
Method: Neutrophil elastase was prepared by the procedure described by Baugh. et al., Biochemistry 15:836 […]. Enzyme assays were conducted substantially according to the procedure disclosed by Nakajima, et al., J. Biol. […] Inhibitors were evaluated by comparing enzymatic activity measured in the presence and absence of inhibitor.

[10] = target: T4, neutrophil elastase; assay: Inhibition of neutrophil elastase, additional peptide inhibitors preincubated in phosphate buffer (Table 3); assay type: biochemical; set-up: Neutrophil elastase was prepared by the procedure described by Baugh. et al; from tissue; settings: Conc. 1.0 × 10^-7 M
Method: Additional peptide inhibitors were evaluated by a procedure similar to that described above. Stock solutions of inhibitors (1.00 mM) were prepared in dimethylsulfoxide and compounds were diluted to 0.10 mM with […], pH 7.5, yielding the free boronic acid. After incubation for one hour at about 23°, inhibitors were added to assay solutions (2.00 mL) consisting of […] MeOSuc-Ala-AlaProVal-p-nitroanilide in 0.10M Hepes buffer, pH 7.5, containing 0.50M NaCl. Assays were initiated by addition of 0.50 μg neutrophil elastase. Control assays without inhibitor indicated an initial velocity of 0.0195 min^-1. The value "k" in Table 3, below, is an estimate of the first order rate constant for time-dependent inhibition, as described above for MeOSuc-AlaAlaPro-Boroval-OH (Table 1).

[11] = plasma incubated at 4°
Method: The stability of inhibitory capacity provided by MeOSuc-AlaAlaPro-Boroval-OH in plasma was determined by incubating samples of plasma containing inhibitor at 4° for 24 hours, followed by assays for inhibitory capacity conducted as above.

[12] = target: T4, neutrophil elastase; assay: Kinetic constants for interaction with human neutrophil elastase (Table 1); assay type: biochemical; set-up: Neutrophil elastase was prepared by the procedure described by Baugh. et al; from tissue
Method: A more extensive evaluation of the kinetic constants for interaction of human neutrophil elastase with MeOSuc-AlaAlaPro-Boroval-OH were determined by methods substantially similar to those disclosed by Schloss, et al., Biochemistry 19:2358 (1980), who describe the following equation describing reversible, tight binding inhibition: [drawing 13]
As determined herein, Ki (initial)=k2 /k1; Ki (final)=(k2 /k1)k4 /(k3 +k4); and […]; E=[Enzyme]; I=[inhibitor]; EI and EI*=[enzyme-inhibitor complexes].
Ki (initial) was determined from initial velocity studies, according to the method of Lineweaver and Burk. Substrate concentration was varied from 0.80-0.04 mM, and concentration of inhibitor (MeOSuc-AlaAlaPro-Boroval-OH) was 200 nM. Observed inhibition appeared to be competitive, since double reciprocal plots of initial velocity vs. substrate concentration intercepted the y-axis at the same point.
The data were fitted to the following equation: P=P0 +(vi -vf)/k+vf t+(vf -vi)e^-kt /k. P is the concentration of product at time t, vi is the initial velocity, vf is the final steady state velocity, k is the first order rate constant and P0 is the concentration of product at t=0. Values of Ki (initial) and Ki (final) were then determined from plots of velocity^-1 vs. concentration of inhibitor using the method described by Dixon, Biochem. J. 55:170 (1953).

Porcine pancreatic elastase, sequence (P00772 27-266): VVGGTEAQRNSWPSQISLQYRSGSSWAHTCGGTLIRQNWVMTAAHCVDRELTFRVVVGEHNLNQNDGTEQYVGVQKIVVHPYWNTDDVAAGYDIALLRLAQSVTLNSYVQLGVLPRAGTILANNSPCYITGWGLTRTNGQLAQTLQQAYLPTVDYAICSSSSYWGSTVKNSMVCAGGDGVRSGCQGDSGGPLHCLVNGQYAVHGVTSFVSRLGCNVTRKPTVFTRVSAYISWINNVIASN

elevation of plasma EIC [6]: at least 10 fold
SMILES: COC(=O)CCC(=O)N[C@@H](C)C(=O)N[C@@H](C)C(=O)N1CCC[C@H]1C(=O)NC(B1OC(C)(C)C(C)(C)O1)C(C)C (stereo partly shown) [MeOSuc--Ala--Ala--Pro--Boroval--pinacol, MeOSuc-AlaAlaPro-Boroval-pinacol]

% Activity ([7]; α-chymotrypsin 3 μg/mL, inhibitor 25 nM): 68.2%
% Activity ([7]; α-chymotrypsin 3 μg/mL, inhibitor 50 nM): 52.3%
% Activity ([7]; α-chymotrypsin 3 μg/mL, inhibitor 75 nM): 31.8%
% Activity ([7]; α-chymotrypsin 3 μg/mL, inhibitor 100 nM): 18.2%
% Activity ([7]; α-chymotrypsin 15 μg/mL, inhibitor 50 nM): 93.8%
% Activity ([7]; α-chymotrypsin 15 μg/mL, inhibitor 100 nM): 80.4%
% Activity ([7]; α-chymotrypsin 15 μg/mL, inhibitor 200 nM): 65.1%
% Activity ([7]; α-chymotrypsin 15 μg/mL, inhibitor 300 nM): 47.9%
% Activity ([7]; α-chymotrypsin 15 μg/mL, inhibitor 400 nM): 31.6%
% Activity ([7]; α-chymotrypsin 15 μg/mL, inhibitor 500 nM): 15.3%
SMILES: COC(=O)CCC(=O)NC(C)C(=O)NC(C)C(=O)N1CCCC1C(=O)NC(Cc1ccccc1)B1OCCNCCO1 (stereo not shown) [MeOSuc-AlaAlaPro-Borophe-diethanolamine]

% Activity [5]: 68%
SMILES: CC(C)CC(NC(=O)CNC(=O)C(Cc1ccccc1)NC(=O)OC(C)(C)C)B1OC(C)(C)C(C)(C)O1 (stereo not shown) [Boc--Phe--Gly--Boroleu--pinacol, Boc-PheGly-Boroleu-pinacol]

% Initial Activity [10]: 61%
k, first order rate constant for time-dependent inhibition [10]: 0.27 min⁻¹
Ki ([12]; initial velocity studies, Lineweaver and Burk, inhibitor 200 nM, read-out: Ki Initial): 150 nM
Ki ([12]; progressive inhibition, Dixon plot, t = 0, inhibitor 30-300 nM, read-out: Ki Initial): 91 nM
Ki ([12]; progressive inhibition, Dixon plot, t = infinity, equilibrium, read-out: Ki Final): 6.2 nM
SMILES: COC(=O)CCC(=O)N[C@@H](C)C(=O)N[C@@H](C)C(=O)N1CCC[C@H]1C(=O)NC(B(O)O)C(C)C (stereo partly shown) [MeOSuc--Ala--Ala--Pro--Boroval--OH, MeOSuc-AlaAlaPro-Boroval-OH]
% Activity, Plasma + Inhibitor ([11]; t = 0 hr.): 18.5%
% Activity, Plasma + Inhibitor ([11]; t = 48 hr.): 17%

% Activity [5]: 71%
SMILES: CC(C)CC(NC(=O)CNC(=O)C(Cc1ccccc1)NC(=O)OC(C)(C)C)B1OCCNCCO1 (stereo not shown) [Boc--Phe--Gly--Boroleu--diethanolamine, Boc-PheGly-Boroleu-diethanolamine]

Further lines, the compound ahead of its results:

SMILES: O=C(NCB(O)O)c1ccccc1 [N-benzoylaminomethaneboronic acid]
Ki [1]: 1000 to 4000 nM

SMILES: COC(=O)CCC(=O)N[C@@H](C)C(=O)N[C@@H](C)C(=O)N1CCC[C@H]1C(=O)NC(C)B1OCCNCCO1 (stereo partly shown) [MeOSuc-AlaAlaPro-Boroala-diethanolamine]
capacity for inhibition of pancreatic elastase, crystalline versus amorphous sample ([2]; crystalline sample relative to amorphous sample of Example 9): at least 5 fold

SMILES: CC(=O)N[C@@H](Cc1ccccc1)B(O)O [(R)-1-acetamido-2-phenylethaneboronic acid]
Ki [3]: 4000 nM

SMILES: CC(NC(=O)C(C)NC(=O)OC(C)(C)C)B1OC(C)(C)C(C)(C)O1 (stereo not drawn) [Boc--Ala--Boroala--pinacol, Boc-Ala-Boroala-pinacol]
% Activity [4]: 102%
% Activity [5]: 90%

SMILES: CC(C)CC(NC(=O)CNC(=O)OC(C)(C)C)B1OCCNCCO1 (stereo not drawn) [Boc--Gly--Boroleu--diethanolamine, Boc-Gly-Boroleu-diethanolamine]
% Activity [5]: 90%

SMILES: CC(C)(C)OC(=O)N[C@@H](Cc1ccccc1)C(=O)N1CCC[C@H]1C(=O)N[C@@H](Cc1ccccc1)B1OC(C)(C)C(C)(C)O1 [Boc--Phe--Pro--Borophe--pinacol, Boc-PhePro-Borophe-pinacol]
Activity % of Control ([2]; inhibitor 5 × 10^4 nM, 0.5 min): 69.1 % of Control
Activity % of Control ([2]; inhibitor 5 × 10^4 nM, 4.0 min): 21 % of Control
Activity % of Control [8]: 69 % of Control
% Activity ([9]; 0.5 min): 42%
% Activity ([9]; 2 min): 23%
% Activity ([9]; 4 min): 17%

SMILES: CC(NC(=O)C(C)NC(=O)OC(C)(C)C)B1OCCNCCO1 (stereo not drawn) [Boc--Ala--Boroala--diethanolamine, Boc-Ala-Boroala-diethanolamine]
Activity % of Control ([2]; inhibitor 5.0 × 10^5 nM, 1.0 min, time dependency not observed): 67 % of Control
% Activity [4]: 99%
% Activity [5]: 85%

SMILES: CC(C)C[C@H](NC(=O)CNC(=O)[C@@H](N)Cc1ccccc1)B1OC(C)(C)C(C)(C)O1.O=C(O)C(F)(F)F [H--Phe--Gly--Boroleu--pinacol, H-PheGly-Boroleu-pinacol.trifluoroacetate]
% Activity [5]: 69%

SMILES: CC(C)CC(NC(=O)CNC(=O)OC(C)(C)C)B1OC(C)(C)C(C)(C)O1 (stereo not drawn) [Boc--Gly--Boroleu--pinacol, Boc-Gly-Boroleu-pinacol]
% Activity [5]: 87%
